Results: patent EP2767544A1, “AMORPHOUS SUBSTANCE OF 17 -ACETOXY-11 -(4-N,N-DIMETHYLAMINOPHENYL)-19-NORPREGNA-4,9-DIENE-3,20-DIONE AND PREPARATION METHOD THEREOF” (Shanghai Cdymax Pharmaceuticals Co., Ltd., priority 2011, dated 2013)

What was measured:
[1] = Solubility test: apparent solubility in water, supernatant concentration determined by HPLC; conditions: for apparent solubility: excess sample in 0.5ml of water, ultrasonic approx. 3 minutes, standing 30 minutes at room temperature, supernatant by HPLC, 30 min
Description: After standing for 30 minutes at room temperature, separate the supernatant by centrifugation. Determine the concentration of sample in supernatant by HPLC (defined as apparent solubility).

[2] = Hygroscopicity test using a microbalance; format: physicochemical; conditions: 25 °C, relative humidity of 5% to 95%, Figure 2
Description: Evaluate hygroscopicity of the amorphous substance using a microbalance (MBA300W, WTI Company, USA). Hang the sample placed on the glass rack in an apparatus that preconditioned at 25 °C, and track the changes of sample weight at a relative humidity of 5% to 95%. Measure the weight of sample at each measurement point (relative humidity) at 2 minutes intervals. The final value was the weight unit at a time point that the variability is less than 0.2%.

[3] = Stability test: heat treatment under reduced pressure, analysed by XRPD, DSC, TGA and IR; format: physicochemical; conditions: dried under reduced pressure at 80 °C for 8 hours, then in vacuum for 15 hours, TGA
Description: Dry the samples of the amorphous CDB-2914 obtained in the above-mentioned examples under reduced pressure at 80 °C for 8 hours, and then dry in vacuum for 15 hours.

Row | Compound | apparent solubility [1] [µg/mL] | hygroscopicity [2] | thermal stability (solid form after heat treatment) [3] | solubility relative to crystal form A ([1]; apparent solubility in water, amorphous versus crystal form A) [times]
1 | CC(=O)O[C@]1(C(C)=O)CC[C@H]2[C@@H]3CCC4=CC(=O)CCC4=C3[C@@H](c3ccc(N(C)C)cc3)C[C@@]21C [Known crystal(crystal form A), 17α-acetoxy-11β-(4-N,N-dimethylaminophenyl)-19-norpregna-4,9-diene-3,20-dione, reference compound] | 0.125 |  |  | 
2 | CC(=O)O[C@]1(C(C)=O)CC[C@H]2[C@@H]3CCC4=CC(=O)CCC4=C3[C@@H](c3ccc(N(C)C)cc3)C[C@@]21C [amorphous form, 17α-acetoxy-11β-(4-N,N-dimethylaminophenyl)-19-norpregna-4,9-diene-3,20-dione] | 1 | low hygroscopicity | remained amorphous | 8
